Holding throughout (assay type): functional
Assay [1] deals with Klebsiella pneumoniae. The assay is described as follows: Antimicrobial activity against carbapenemases KPC-producing Klebsiella pneumoniae VA-406 infected in sc dosed CD-1 mouse in presence of 4 ug/ml Tazobactam beta-lactamase inhibitor.
Assay [2] has as its system Klebsiella pneumoniae. Nature of the assay: Antimicrobial activity against carbapenemases KPC-producing Klebsiella pneumoniae VA-361 infected in sc dosed CD-1 mouse in presence of 4 ug/ml NXL104 beta-lactamase inhibitor.
The subject of assay [3] is Klebsiella pneumoniae. Nature of the assay: Antimicrobial activity against carbapenemases KPC-producing Klebsiella pneumoniae VA-406 infected in sc dosed CD-1 mouse.
The subject of assay [4] is Klebsiella pneumoniae. Nature of the assay: Antimicrobial activity against carbapenemases KPC-producing Klebsiella pneumoniae VA-361 infected in sc dosed CD-1 mouse in presence of 2 ug/ml NXL104 beta-lactamase inhibitor.
Assay [5] relates to Klebsiella pneumoniae. The assay is described as follows: Antimicrobial activity against carbapenemases KPC-producing Klebsiella pneumoniae VA-361 infected in sc dosed CD-1 mouse in presence of 4 ug/ml cavulanate beta-lactamase inhibitor.
In assay [6] the test system is Klebsiella pneumoniae. The assay is described as follows: Antimicrobial activity against carbapenemases KPC-producing Klebsiella pneumoniae VA-361 infected in sc dosed CD-1 mouse in presence of 1 ug/ml NXL104 beta-lactamase inhibitor.
The test system of assay [7] is Klebsiella pneumoniae. The assay is described as follows: Antimicrobial activity against carbapenemases KPC-producing Klebsiella pneumoniae VA-406 infected in sc dosed CD-1 mouse in presence of 2 ug/ml NXL104 beta-lactamase inhibitor.
The subject of assay [8] is Klebsiella pneumoniae. Nature of the assay: Antimicrobial activity against carbapenemases KPC-producing Klebsiella pneumoniae VA-406 infected in sc dosed CD-1 mouse in presence of 4 ug/ml cavulanate beta-lactamase inhibitor.
Assay [9] has as its system Klebsiella pneumoniae. Nature of the assay: Antimicrobial activity against carbapenemases KPC-producing Klebsiella pneumoniae VA-406 infected in sc dosed CD-1 mouse in presence of 1 ug/ml NXL104 beta-lactamase inhibitor.
For assay [10], the system named is Klebsiella pneumoniae. The assay is described as follows: Antimicrobial activity against carbapenemases KPC-producing Klebsiella pneumoniae VA-361 infected in sc dosed CD-1 mouse.
Assay [11] deals with Klebsiella pneumoniae. Nature of the assay: Antimicrobial activity against carbapenemases KPC-producing Klebsiella pneumoniae VA-406 infected in sc dosed CD-1 mouse in presence of 4 ug/ml NXL104 beta-lactamase inhibitor.
In assay [12] the test system is Klebsiella pneumoniae. Nature of the assay: Antimicrobial activity against carbapenemases KPC-producing Klebsiella pneumoniae VA-361 infected in sc dosed CD-1 mouse in presence of 4 ug/ml Tazobactam beta-lactamase inhibitor.
For assay [13], the system named is Klebsiella pneumoniae. The assay is described as follows: Antimicrobial activity against carbapenemases KPC-producing Klebsiella pneumoniae VA-361 infected in CD-1 mouse thigh infection model assessed as change in log10 CFU reduction per thigh treated 1.5 hr post infection at >=1024:256 mg/kg, sc compound to NXL104 beta-lactamase inhibitor ratio after 24 hrs by acute lethal septicemia analysis (reference value: 8.93 log10CFU/thigh).

The subject of assay [14] is Klebsiella pneumoniae. The assay is described as follows: Antimicrobial activity against carbapenemases KPC-producing Klebsiella pneumoniae VA-406 infected in CD-1 mouse thigh infection model assessed as change in log10 CFU reduction per thigh treated 1.5 hr post infection at >=8:2 mg/kg, sc compound to NXL104 beta-lactamase inhibitor ratio after 24 hrs by acute lethal septicemia analysis (reference value: 8.67 log10CFU/thigh).

The test system of assay [15] is Klebsiella pneumoniae. Nature of the assay: Antimicrobial activity against carbapenemases KPC-producing Klebsiella pneumoniae VA-361 infected in CD-1 mouse thigh infection model assessed as change in log10 CFU reduction per thigh treated 1.5 hr post infection at 1024 mg/kg, sc after 24 hrs by acute lethal septicemia analysis (reference value: 8.93 log10CFU/thigh). The settings on record: route subcutaneous.

Assay [16] concerns Klebsiella pneumoniae. Nature of the assay: Antimicrobial activity against carbapenemases KPC-producing Klebsiella pneumoniae VA-361 infected in CD-1 mouse thigh infection model assessed as change in log10 CFU reduction per thigh treated 1.5 hr post infection at 2048 mg/kg, sc after 24 hrs by acute lethal septicemia analysis (reference value: 8.93 log10CFU/thigh). The settings on record: route subcutaneous.

For assay [17], the system named is Klebsiella pneumoniae. The assay is described as follows: Antimicrobial activity against carbapenemases KPC-producing Klebsiella pneumoniae VA-406 infected in CD-1 mouse thigh infection model assessed as change in log10 CFU reduction per thigh treated 1.5 hr post infection at 1024 mg/kg, sc after 24 hrs by acute lethal septicemia analysis (reference value: 8.67 log10CFU/thigh). The settings on record: route subcutaneous.

Assay [18] relates to Klebsiella pneumoniae. Nature of the assay: Antimicrobial activity against carbapenemases KPC-producing Klebsiella pneumoniae VA-406 infected in CD-1 mouse thigh infection model assessed as change in log10 CFU reduction per thigh treated 1.5 hr post infection at 2048 mg/kg, sc after 24 hrs by acute lethal septicemia analysis (reference value: 8.67 log10CFU/thigh). The settings on record: route subcutaneous.

Values after ≈ are worked out from the molar mass of the structure shown. A value given as a limit tells only on which side of the number the result lay.

In the case of `CO/N=C(\C(=O)N[C@@H]1C(=O)N2C(C(=O)[O-])=C(C[N+]3(C)CCCC3)CS[C@H]12)c1csc(N)n1` [CEFEPIME], the MIC in the assay on Klebsiella pneumoniae [1] is 128 µg/mL; in the assay with Klebsiella pneumoniae [2], no more than 0.06 µg/mL; in the assay with Klebsiella pneumoniae [3], 256 µg/mL (≈ 533 µM); in the assay with Klebsiella pneumoniae [4] it was 0.25 µg/mL; with Klebsiella pneumoniae [5], 8 µg/mL; in the assay with Klebsiella pneumoniae [6], 0.5 µg/mL. Besides, the MIC amounted to 0.5 µg/mL in the assay on Klebsiella pneumoniae [7]; 128 µg/mL in the assay on Klebsiella pneumoniae [8]; 0.5 µg/mL in the assay on Klebsiella pneumoniae [9]; 32 µg/mL (≈ 66.6 µM) against Klebsiella pneumoniae [10]; 0.125 µg/mL with Klebsiella pneumoniae [11].

Regarding `CO/N=C(\C(=O)N[C@@H]1C(=O)N2C(C(=O)O)=C(COC(C)=O)CS[C@H]12)c1csc(N)n1` [CEFOTAXIME], the MIC in the assay with Klebsiella pneumoniae [12] was 16 µg/mL; in the assay on Klebsiella pneumoniae [1], 256 µg/mL; with Klebsiella pneumoniae [2] it was 0.125 µg/mL; in the assay on Klebsiella pneumoniae [3], no less than 512 µg/mL; with Klebsiella pneumoniae [4], 0.5 µg/mL; with Klebsiella pneumoniae [5] it was 16 µg/mL. Besides, the minimal inhibitory concentration (MIC) with Klebsiella pneumoniae [6] was 0.5 µg/mL; in the assay with Klebsiella pneumoniae [7], 0.5 µg/mL; in the assay with Klebsiella pneumoniae [8], 256 µg/mL; with Klebsiella pneumoniae [9] it was 0.5 µg/mL; in the assay on Klebsiella pneumoniae [10], 64 µg/mL (≈ 141 µM); in the assay on Klebsiella pneumoniae [11], 0.125 µg/mL.

As to `C[C@@H](O)[C@H]1C(=O)N2C(C(=O)O)=C(SCCNC=N)C[C@H]12` [IMIPENEM ANHYDROUS], the MIC with Klebsiella pneumoniae [12] stood at 4 µg/mL; in the assay on Klebsiella pneumoniae [1], 256 µg/mL; in the assay on Klebsiella pneumoniae [3] it was 256 µg/mL (≈ 855 µM); in the assay on Klebsiella pneumoniae [5], 2 µg/mL; with Klebsiella pneumoniae [8] it was 128 µg/mL; against Klebsiella pneumoniae [10], 4 µg/mL (≈ 13.4 µM).

Regarding `C[C@@H](O)[C@H]1C(=O)N2C(C(=O)O)=C(S[C@@H]3CN[C@H](C(=O)N(C)C)C3)[C@H](C)[C@H]12` [MEROPENEM], the MIC with Klebsiella pneumoniae [12] came to 4 µg/mL; in the assay on Klebsiella pneumoniae [1] it was 128 µg/mL; against Klebsiella pneumoniae [3], 256 µg/mL (≈ 668 µM); with Klebsiella pneumoniae [5], 2 µg/mL; in the assay with Klebsiella pneumoniae [8], 128 µg/mL; against Klebsiella pneumoniae [10] it was 4 µg/mL (≈ 10.4 µM).

As for `CCN1CCN(C(=O)N[C@@H](C(=O)N[C@@H]2C(=O)N3[C@@H]2SC(C)(C)[C@@H]3C(=O)O)c2ccccc2)C(=O)C1=O` [PIPERACILLIN], the MIC in the assay with Klebsiella pneumoniae [12] was no less than 512 µg/mL; in the assay with Klebsiella pneumoniae [1], no less than 512 µg/mL; in the assay with Klebsiella pneumoniae [2], no more than 0.06 µg/mL; against Klebsiella pneumoniae [3] it was no less than 512 µg/mL; with Klebsiella pneumoniae [4] it was 8 µg/mL; with Klebsiella pneumoniae [6], 32 µg/mL. In addition, the minimal inhibitory concentration (MIC) is 8 µg/mL with Klebsiella pneumoniae [7], 16 µg/mL in the assay on Klebsiella pneumoniae [9], no less than 512 µg/mL against Klebsiella pneumoniae [10] and 0.5 µg/mL in the assay with Klebsiella pneumoniae [11]. The log10cfu was -1.76 in the assay on Klebsiella pneumoniae [13]; 2.93 in the assay with Klebsiella pneumoniae [14]; -0.32 with Klebsiella pneumoniae [15]; -0.34 with Klebsiella pneumoniae [16]; 0.25 in the assay with Klebsiella pneumoniae [17]; 0.03 in the assay with Klebsiella pneumoniae [18].

The record behind these values is ChEMBL document CHEMBL1687830, “Evaluation of ceftazidime and NXL104 in two murine models of infection due to KPC-producing Klebsiella pneumoniae” (2011).
